In patent US20090011424A1, “Cancer-suppressing agents” (Tokyo Medical and Dental University, priority 2005, published 2009):

Test system: SMS-KAN cell
Test: messenger RNA expression analysis, AceGene Human oligo chip 30 K, NR1I2-expressing clone B1 vs control clone
Assay type: cell-based
Details: 2nd: Cy5-B1/Cy3-control
Excerpt: The NR1I2 gene has been known as a transcriptional factor. Thus, it is possible to know what type of gene expression is controlled by obtaining messenger RNAs from cells causing NR1I2 protein expression and cells not causing such expression, and comparing the expression levels thereof with each other. As described above, the NR1I2 gene protein may have an effect of inhibiting cancer. […] Therefore, pCMV-Tag3 vector not containing a foreign gene as a control was introduced into SMS-KAN cell, and pCMV-Tag3-VP-NR1I2 containing the NR1I2 gene as a test sample was introduced into SMS-KAN cell. As a result, a control cell clone and a cell clone B1 permanently causing NR1I2 protein expression were obtained. Thereafter, analysis of messenger RNA expression was carried out using these two types of cells and an AceGene Human oligo chip 30 K (DNA Chip Research Inc.), with which the expression levels of 30,000 human genes can be observed (Inoue. J., et al. Am J. Pathol. 165. 71. 2004). A complementary strand DNA (complimentary DNA) was prepared, into which aminoallyl-dUTP (Ambion Inc.) was incorporated using an Oligo (dT) 12-18 primer. Then, the aminoallyl group was labeled with reactive Cy3 (cyanin 3) and Cy5 (cyanin 5) (Amersham Biosciences) via a coupling reaction. Hybridization was performed twice (1st: Cy3-B1/Cy5-control; 2nd: Cy5-B1/Cy3-control). Signals were measured using a GenePix 4000B (Axon Instruments) so as to be analyzed by GenePix Pro 4.1 software (Axon Instruments). Tables 3 and 4 are lists of genes, where in the cases of SMS-KAN cells into which the NR1I2 gene had been introduced in the two experiments, the expression levels were 1.5-fold or greater than the expression level in the case of a control cell clone.

Substance: NR1I2 gene: human-derived gene, nuclear receptor subfamily 1, group I, member 2 (pregnane X receptor, PXR), nucleotide sequence SEQ ID NO: 1
- ADAMTS2 expression level Ratio 2nd: 1.60
- ADNP expression level Ratio 2nd: 1.63
- AP3S2 expression level Ratio 2nd: 2.55
- APEG1 expression level Ratio 2nd: 1.91
- APOA1 expression level Ratio 2nd: 2.00
- APP expression level Ratio 2nd: 2.05
- ARHC expression level Ratio 2nd: 1.52
- ARL2 expression level Ratio 2nd: 1.53
- ASCL2 expression level Ratio 2nd: 2.46
- ASH1 expression level Ratio 2nd: 1.83
- B4GALT5 expression level Ratio 2nd: 1.56
- BARD1 expression level Ratio 2nd: 1.93
- BCAT2 expression level Ratio 2nd: 1.63
- BLP2 expression level Ratio 2nd: 1.53
- BMP15 expression level Ratio 2nd: 1.52
- C6orf25 expression level Ratio 2nd: 1.76
- CCNA1 expression level Ratio 2nd: 1.92
- CDC7L1 expression level Ratio 2nd: 1.86
- CISH expression level Ratio 2nd: 2.17
- CORO2A expression level Ratio 2nd: 1.73
- Cab45 expression level Ratio 2nd: 1.86
- DKFZp434G05 expression level Ratio 2nd: 1.58
- DKKL1 expression level Ratio 2nd: 1.56
- DNA12 expression level Ratio 2nd: 1.54
- EPHX1 expression level Ratio 2nd: 2.25
- ERCC1 expression level Ratio 2nd: 1.84
- ETR101 expression level Ratio 2nd: 1.67
- EXT1 expression level Ratio 2nd: 1.89
- FLJ10737 expression level Ratio 2nd: 1.54
- FLJ12389 expression level Ratio 2nd: 2.19
- FLJ13197 expression level Ratio 2nd: 2.99
- FLJ13479 expression level Ratio 2nd: 1.94
- FLJ20288 expression level Ratio 2nd: 1.83
- FLJ20555 expression level Ratio 2nd: 1.53
- FLJ23462 expression level Ratio 2nd: 1.67
- FOFR3 expression level Ratio 2nd: 1.59
- GLI2 expression level Ratio 2nd: 2.72
- GNE expression level Ratio 2nd: 1.90
- GSTT2 expression level Ratio 2nd: 3.28
- GUCY1A3 expression level Ratio 2nd: 1.63
- HHEX expression level Ratio 2nd: 1.57
- HNT expression level Ratio 2nd: 1.57
- HPCL2 expression level Ratio 2nd: 1.74
- ICAM5 expression level Ratio 2nd: 1.54
- IFIT4 expression level Ratio 2nd: 1.54
- INSL6 expression level Ratio 2nd: 1.68
- IRC039700 expression level Ratio 2nd: 2.15
- KCNJ15 expression level Ratio 2nd: 1.91
- KIAA0161 expression level Ratio 2nd: 1.56
- KIAA0212 expression level Ratio 2nd: 2.04
- LBP-9 expression level Ratio 2nd: 1.95
- LDB1 expression level Ratio 2nd: 1.60
- LICAM expression level Ratio 2nd: 1.89
- LILRB5 expression level Ratio 2nd: 1.76
- LOC51024 expression level Ratio 2nd: 1.69
- LRP8 expression level Ratio 2nd: 1.54
- LZLP expression level Ratio 2nd: 1.61
- MAFG expression level Ratio 2nd: 2.55
- MGC2306 expression level Ratio 2nd: 1.58
- MGC2941 expression level Ratio 2nd: 1.93
- MPP6 expression level Ratio 2nd: 1.70
- MT-ACT48 expression level Ratio 2nd: 1.61
- OCM expression level Ratio 2nd: 1.72
- OMP expression level Ratio 2nd: 1.58
- OPA3 expression level Ratio 2nd: 2.49
- ORC5L expression level Ratio 2nd: 1.69
- ORM1 expression level Ratio 2nd: 1.60
- PCDHA4 expression level Ratio 2nd: 1.97
- PCDHB10 expression level Ratio 2nd: 1.66
- PDCD8 expression level Ratio 2nd: 2.03
- PFKFB4 expression level Ratio 2nd: 4.97
- PGAM1 expression level Ratio 2nd: 2.16
- PITPN expression level Ratio 2nd: 1.75
- PLA2G2A expression level Ratio 2nd: 3.05
- PLCE1 expression level Ratio 2nd: 2.94
- PLEKHA1 expression level Ratio 2nd: 1.56
- PRO2121 expression level Ratio 2nd: 1.91
- PRO2831 expression level Ratio 2nd: 1.53
- RDH5 expression level Ratio 2nd: 1.64
- RP1 expression level Ratio 2nd: 1.56
- RPL39L expression level Ratio 2nd: 2.34
- RPS16 expression level Ratio 2nd: 1.59
- SC65 expression level Ratio 2nd: 1.58
- SCD expression level Ratio 2nd: 1.77
- SCN2B expression level Ratio 2nd: 1.54
- SLC22A11 expression level Ratio 2nd: 1.68
- SNAP91 expression level Ratio 2nd: 3.43
- STK11 expression level Ratio 2nd: 1.64
- SURF1 expression level Ratio 2nd: 1.95
- TCEA1 expression level Ratio 2nd: 1.56
- TGM2 expression level Ratio 2nd: 1.62
- TIMM10 expression level Ratio 2nd: 1.89
- TLAL1 expression level Ratio 2nd: 2.37
- TMPRSS4 expression level Ratio 2nd: 1.57
- TOP3B expression level Ratio 2nd: 1.61
- TPARL expression level Ratio 2nd: 1.58
- TRPV4 expression level Ratio 2nd: 1.80
- TSPAN-1 expression level Ratio 2nd: 1.69
- UXT expression level Ratio 2nd: 2.94
- WHSC2 expression level Ratio 2nd: 1.67
